The results in this text go back to ChEMBL document CHEMBL1149214, “1,2-Diaryl-1-ethanone and pyrazolo [4,3-c] quinoline-4-one as novel selective cyclooxygenase-2 inhibitors” (Bioorg Med Chem Lett, 2004).

The IC50 is the concentration at which inhibition is half-maximal. A higher IC50 goes with weaker potency in that assay. One may read the inhibition as the share of the control response that was lost under treatment. Higher therefore signals a strong effect.

The test system of one assay is Rattus norvegicus. In words: Activity in Carrageenan induced rat paw model at 30 mg/Kg; Range = 25-45%. The class given is functional. For orientation: The carrageenan paw model is a standard test of acute inflammation.
Assay [1] concerns the target T1, Prostaglandin G/H synthase 2 (Homo sapiens, UniProt P35354).
T1 sequence (P35354 whole entry): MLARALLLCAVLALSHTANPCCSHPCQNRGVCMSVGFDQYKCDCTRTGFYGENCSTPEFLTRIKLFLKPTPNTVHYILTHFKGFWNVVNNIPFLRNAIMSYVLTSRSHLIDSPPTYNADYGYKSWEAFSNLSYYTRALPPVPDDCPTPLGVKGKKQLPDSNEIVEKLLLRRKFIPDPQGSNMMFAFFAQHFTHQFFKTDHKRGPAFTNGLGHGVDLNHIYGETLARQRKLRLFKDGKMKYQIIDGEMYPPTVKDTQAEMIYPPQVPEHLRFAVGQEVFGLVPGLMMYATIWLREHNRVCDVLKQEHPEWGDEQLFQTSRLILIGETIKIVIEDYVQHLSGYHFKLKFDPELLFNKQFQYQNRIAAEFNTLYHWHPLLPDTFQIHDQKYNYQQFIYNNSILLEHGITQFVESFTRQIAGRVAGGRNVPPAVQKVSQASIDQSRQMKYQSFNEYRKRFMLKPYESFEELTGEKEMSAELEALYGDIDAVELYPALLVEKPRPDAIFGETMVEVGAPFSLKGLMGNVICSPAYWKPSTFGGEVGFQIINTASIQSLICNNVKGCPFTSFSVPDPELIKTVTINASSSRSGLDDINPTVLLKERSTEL
In words: Inhibition of human Prostaglandin G/H synthase 2 in sf-9 cells by spectrophotometric method. It is filed as cell-based, Sf9.

Assay [2] concerns the target T2, Prostaglandin G/H synthase 1 (Ovis aries) (UniProt P05979).
T2 sequence (whole entry): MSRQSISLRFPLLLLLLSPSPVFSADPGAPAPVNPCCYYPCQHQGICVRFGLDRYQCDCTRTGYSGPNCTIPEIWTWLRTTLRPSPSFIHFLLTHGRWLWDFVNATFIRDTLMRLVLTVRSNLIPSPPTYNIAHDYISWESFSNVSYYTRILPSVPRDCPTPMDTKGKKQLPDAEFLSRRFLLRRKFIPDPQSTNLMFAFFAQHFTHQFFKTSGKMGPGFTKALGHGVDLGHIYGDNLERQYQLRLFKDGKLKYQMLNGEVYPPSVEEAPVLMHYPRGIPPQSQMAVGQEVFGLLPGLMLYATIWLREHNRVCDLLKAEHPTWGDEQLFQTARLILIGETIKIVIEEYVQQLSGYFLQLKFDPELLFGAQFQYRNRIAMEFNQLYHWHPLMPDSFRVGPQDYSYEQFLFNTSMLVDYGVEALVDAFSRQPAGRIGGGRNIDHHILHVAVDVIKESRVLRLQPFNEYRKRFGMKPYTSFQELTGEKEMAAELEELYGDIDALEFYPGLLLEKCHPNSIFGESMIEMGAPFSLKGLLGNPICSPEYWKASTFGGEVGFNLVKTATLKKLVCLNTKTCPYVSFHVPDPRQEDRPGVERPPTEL
In words: Inhibition of prostaglandin G/H synthase 1 enzyme from ram seminal vesicles by spectrophotometric method at 10 uM.

Assay [3] concerns the target T3, Prostaglandin G/H synthase 1 (Ovis aries, UniProt P05979).
T3 sequence (P05979 whole entry): T2 sequence (whole entry)
The assay is described as follows: Inhibition of prostaglandin G/H synthase 1 enzyme from ram seminal vesicles by spectrophotometric method.

Assay [4] addresses T1, Prostaglandin G/H synthase 2. In words: Inhibition of human Prostaglandin G/H synthase 2 in sf-9 cells by spectrophotometric method.

In the assay on Rattus norvegicus, `C[S+]([O-])c1ccc(C(Nc2nccs2)C(=O)c2ccc(F)cc2)cc1` (centres undefined) gave an Activity of less than 45%. Also, the half-inhibitory concentration (IC50) in assay [1] worked out at 2.1 µM; in assay [3], 500 µM. In assay [2], this compound came in with an inhibition of -0%.

The compound `Cc1nn(-c2ccc(S(N)(=O)=O)cc2)c2c1c(O)nc1ccc([N+](=O)[O-])cc12` showed an Activity in the assay on Rattus norvegicus of less than 45%. The compound further registered an inhibition in assay [2] of 40%.

As to `Cc1nn(-c2ccccc2)c2c1c(O)nc1ccc([N+](=O)[O-])cc12`, the values for the IC50 in assay [4] and in assay [3] were 0.55 µM and 5 µM, respectively. Moreover, the Activity in the assay on Rattus norvegicus is less than 45%. For the same compound, the inhibition in assay [2] was determined as 46%.

For the compound `Cc1nn(-c2ccc(S(N)(=O)=O)cc2)c2c1c(=O)[nH]c1ccc([N+](=O)[O-])cc12`, the figures for the IC50 in assay [4] and in assay [3] were 0.24 µM and 4.7 µM, respectively.

Compound `Cc1nn(-c2ccc(S(N)(=O)=O)cc2)c2c1c(O)nc1ccccc12` yielded an inhibition in assay [2] of 20%.

Regarding `Cc1nn(-c2ccccc2)c2c1c(O)nc1ccccc12`, the inhibition in assay [2] was determined as 82%.

In assay [2], `CSc1ccc(C(=O)C(Nc2ncccc2Cl)c2ccccc2)cc1` (centres undefined) came in with an inhibition of 53%.

Turning to `Cc1nn(-c2ccc(S(N)(=O)=O)c(CO)c2)c2c1c(O)nc1ccc([N+](=O)[O-])cc12`, in assay [2], the inhibition is -0%.

The compound `NS(=O)(=O)c1ccc(C(Nc2nccs2)C(=O)c2ccc(F)cc2)cc1` (centres undefined) returned an inhibition in assay [2] of -0%.

In assay [2], `C[S+]([O-])c1ccc(C(=O)C(Nc2nccs2)c2ccccc2)cc1` (centres undefined) registered an inhibition of 29%.

The compound `Cc1nn(-c2ccc(S(N)(=O)=O)c(CO)c2)c2c1c(O)nc1ccccc12` showed an inhibition in assay [2] of -0%.

In turn, `NS(=O)(=O)c1ccc(C(Nc2ccccn2)C(=O)c2ccc(F)cc2)cc1` (centres undefined) gave an inhibition in assay [2] of 30%.

For the compound `Cc1nn(-c2ccc(S(=O)(=O)NCc3ccccc3)cc2)c2c1c(O)nc1ccc([N+](=O)[O-])cc12`, the inhibition in assay [2] was determined as 78%.

`NS(=O)(=O)c1ccc(C(Nc2nc3ccccc3s2)C(=O)c2ccc(F)cc2)cc1` (centres undefined): the inhibition in assay [2] was found to be 23%.

Regarding `C[S+]([O-])c1ccc(C(Nc2cccnc2)C(=O)c2ccc(F)cc2)cc1` (centres undefined), in the assay on Rattus norvegicus, the Activity is reported as less than 45%. Moreover, the IC50 amounted to 0.5 µM in assay [1] and 50 µM in assay [3]. Moreover, the inhibition in assay [2] was -0%.

Take `CS(=O)(=O)c1ccc(C(Nc2nccs2)C(=O)c2ccc(F)cc2)cc1` (centres undefined): the inhibition in assay [2] is -0%.

In assay [2], `CS(=O)(=O)c1ccc(C(=O)C(Nc2nccs2)c2ccccc2)cc1` (centres undefined) gave an inhibition of 10%.

`NS(=O)(=O)c1ccc(C(Nc2ncccn2)C(=O)c2ccc(F)cc2)cc1` (centres undefined) displayed an inhibition in assay [2] of -0%.
